The results in this text go back to EPA's ToxValDB 9.5 (doi:10.2903/j.efsa.2016.4575).

In brackets after ≈: the same amount, converted by molar mass.

In one series the test system is Apis mellifera. Conditions: acute, mortality.
The next series concerns Bibionidae. Conditions: chronic/long-term; duration: 23 days.
A further series deals with Bird. Conditions: acute; oral; unspecified; mortality.
The next series has as its system Canidae. Conditions: Dog Other; for NOAEL: oral, hematological.
Another series relates to Colinus virginianus. Conditions: chronic.
Another series has as its system Coturnix japonica. Conditions: acute; oral; M; mortality.
The next series deals with Daphnia magna. Conditions: chronic/long-term; duration: 21 days.
Another series concerns Folsomia candida. Conditions: chronic/long-term; reproduction.
Another series relates to Tagia sp. Conditions: chronic/long-term; mortality.
The next series concerns Typhlodromus pyri. Briefly: LR50; higher = less toxic. Conditions: not reported; mortality.

By NOAEL is commonly meant the highest dose or exposure tested at which no adverse effect was seen. What is called LC50 is the concentration that kills 50% of the test population. For `COc1cc(OC)nc(NC(=O)NS(=O)(=O)c2ncccc2C(F)(F)F)n1` [Flazasulfuron], the LD50 in the series on Apis mellifera (dermal) is greater than 25.9 µg/piece; in the series with Apis mellifera (oral, unspecified), greater than 46.3 µg/piece; in the series on Bird, 2120 mg/kg-day; with Coturnix japonica, 995 mg/kg-day; in the series on Rattus norvegicus (acute, oral, mortality), 1320 mg/kg-day. The NOEC in the series with Bibionidae stood at 0.1 mg/L; in the series on Daphnia magna, 6.2 mg/L; in the series with Folsomia candida it was 125 mg/kg; in the series on Oncorhynchus mykiss (chronic/long-term, duration: 21 days), 5 mg/L; in the series on Tagia sp., 8 mg/kg. Further, the NOAEL with Canidae (chronic, duration: 1 years) was 2 mg/kg-day; in the series with Canidae (subchronic, duration: 90 days), 2 mg/kg-day; with Colinus virginianus, 95.9 mg/kg-day; in the series with Rattus norvegicus (chronic, duration: 2 years, other), 1.3 mg/kg-day; in the series on Rattus norvegicus (reproduction developmental), 11 mg/kg-day; in the series on Rattus norvegicus (reproduction developmental, body weight) it was 100 mg/kg-day. This compound gave an LEC in the series on Canidae (repeat dose other) of 2 mg/kg-day. In the series with Oncorhynchus mykiss (acute, duration: 96 hours, mortality), this compound returned a 50% lethal concentration (LC50) of 22 µg/mL (≈ 54 µM). The same compound had an LR50 in the series with Typhlodromus pyri greater than 50 g/ha.
